Measured values: the supplement of paper PMC10307832

Columns and labels:
Experiment in all cases: relative viability (nuclei count vs DMSO), 5 days (fraction); higher = more cells survive
Tozasertib + Lapatinib = compound: Cc1cc(Nc2cc(N3CCN(C)CC3)nc(Sc3ccc(NC(=O)C4CC4)cc3)n2)n[nH]1 [Tozasertib] + CS(=O)(=O)CCNCc1ccc(-c2ccc3ncnc(Nc4ccc(OCc5cccc(F)c5)c(Cl)c4)c3c2)o1 [Lapatinib] (partner 2 µM)
In short: (§1)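 A single step with final 0.05% Triton X-100, 1% formaldehyde and 1 ug/ml Hoechst fixed the cells and stained nuclei 5 days after treatment. Lung cancer cell lines in 1536-well plates had been treated by pin tool the day after seeding with one drug alone or a fixed anchor-drug dose plus five library-drug doses (not always all listed) in √10 steps, and nuclei were counted on 4× images. Relative viability is the ratio of nuclei in treated wells to nuclei in vehicle wells, taken as the median of duplicate plates.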

Tozasertib + Alpelisib = compound: Cc1cc(Nc2cc(N3CCN(C)CC3)nc(Sc3ccc(NC(=O)C4CC4)cc3)n2)n[nH]1 [Tozasertib] + Cc1nc(NC(=O)N2CCC[C@H]2C(N)=O)sc1-c1ccnc(C(C)(C)C(F)(F)F)c1 [Alpelisib] (partner 2 µM)
In short: as §1

Tozasertib + Dasatinib = compound: Cc1cc(Nc2cc(N3CCN(C)CC3)nc(Sc3ccc(NC(=O)C4CC4)cc3)n2)n[nH]1 [Tozasertib] + Cc1nc(Nc2ncc(C(=O)Nc3c(C)cccc3Cl)s2)cc(N2CCN(CCO)CC2)n1 [Dasatinib] (partner 0.075 µM)
In short: as §1

Tozasertib + Decitabine = compound: Cc1cc(Nc2cc(N3CCN(C)CC3)nc(Sc3ccc(NC(=O)C4CC4)cc3)n2)n[nH]1 [Tozasertib] + Nc1ncn([C@H]2C[C@H](O)[C@@H](CO)O2)c(=O)n1 [Decitabine] (partner 2 µM)
In short: as §1

Tozasertib + Vorinostat = compound: Cc1cc(Nc2cc(N3CCN(C)CC3)nc(Sc3ccc(NC(=O)C4CC4)cc3)n2)n[nH]1 [Tozasertib] + O=C(CCCCCCC(=O)Nc1ccccc1)NO [Vorinostat] (partner 1 µM)
In short: as §1

Row | Cell Line | relative viability (Tozasertib + Lapatinib; first compound 0.004 µM) | relative viability (Tozasertib + Lapatinib; first compound 0.01265 µM) | relative viability (Tozasertib + Lapatinib; first compound 0.04 µM) | relative viability (Tozasertib + Lapatinib; first compound 0.1265 µM) | relative viability (Tozasertib + Alpelisib; first compound 0.004 µM) | relative viability (Tozasertib + Alpelisib; first compound 0.01265 µM) | relative viability (Tozasertib + Alpelisib; first compound 0.04 µM) | relative viability (Tozasertib + Alpelisib; first compound 0.1265 µM) | relative viability (Tozasertib + Dasatinib; first compound 0.004 µM) | relative viability (Tozasertib + Dasatinib; first compound 0.01265 µM) | relative viability (Tozasertib + Dasatinib; first compound 0.04 µM) | relative viability (Tozasertib + Dasatinib; first compound 0.1265 µM) | relative viability (Tozasertib + Decitabine; first compound 0.004 µM) | relative viability (Tozasertib + Decitabine; first compound 0.01265 µM) | relative viability (Tozasertib + Decitabine; first compound 0.04 µM) | relative viability (Tozasertib + Decitabine; first compound 0.1265 µM) | relative viability (Tozasertib + Vorinostat; first compound 0.004 µM) | relative viability (Tozasertib + Vorinostat; first compound 0.01265 µM) | relative viability (Tozasertib + Vorinostat; first compound 0.04 µM) | relative viability (Tozasertib + Vorinostat; first compound 0.1265 µM)
1 | NCI-H358 | 0.54 | 0.376 | 0.439 | 0.206 | 1.08 | 0.863 | 0.83 | 0.182 | 0.154 | 0.152 | 0.187 | 0.121 | 0.246 | 0.196 | 0.228 | 0.0965 | 0.626 | 0.648 | 0.361 | 0.15
2 | NCI-H460 | 0.968 | 0.842 | 1.01 | 0.0247 | 0.544 | 0.435 | 0.449 | 0.293 | 0.546 | 0.546 | 0.62 | 0.318 | 0.456 | 0.53 | 0.493 | 0.284 | 0.83 | 0.769 | 0.912 | 0.163
3 | NCI-H520 | 0.868 | 0.816 | 0.775 | 0.214 | 0.945 | 0.844 | 0.889 | 0.864 | 0.265 | 0.203 | 0.209 | 0.138 | 0.533 | 0.449 | 0.467 | 0.296 | 0.814 | 0.747 | 0.575 | 0.224
4 | NCI-H596 | 1.17 | 1.07 | 1.11 | 0.49 |  | 0.451 | 0.519 | 0.439 | 0.555 | 0.589 | 0.645 | 0.53 | 0.984 | 0.948 | 0.853 | 0.888 | 0.655 | 0.538 | 0.72 | 0.451
5 | NCI-H647 | 1.13 | 0.989 | 0.895 | 0.235 | 1.43 | 0.915 | 1.06 | 0.371 | 0.204 | 0.185 | 0.181 | 0.0838 | 0.43 | 0.402 | 0.322 | 0.25 | 0.729 | 0.377 | 0.384 | 0.172
6 | NCI-H650 | 1.05 | 0.844 | 0.991 | 0.454 | 1.23 | 1.06 |  |  | 0.577 | 0.384 | 0.452 | 0.389 | 0.38 | 0.288 | 0.334 | 0.284 | 0.448 | 0.4 | 0.568 | 0.389
7 | NCI-H661 | 0.581 |  | 0.427 | 0.376 | 0.568 | 0.735 | 0.776 | 0.496 | 1.12 | 0.85 | 0.699 | 0.249 | 0.65 | 0.599 | 0.569 | 0.304 | 0.912 | 0.806 | 0.549 | 0.312
8 | NCI-H727 | 0.959 |  | 0.942 | 0.442 | 0.739 | 0.554 | 0.639 | 0.482 | 0.386 | 0.38 | 0.378 | 0.286 | 0.942 |  | 0.803 | 0.645 | 1.12 | 1.12 | 1.13 | 0.82
